US20090203800A1, “Cytostatic Composition” (priority 2008, published 2009)

Columns and labels:
Type in all cases: cell-based
Settings in all cases: 5-FU 1.0 mg/ml
[1] = tested on: 27 human tumor xenografts; assay: clonogenic assay, whole test panel
Description: The antitumor efficacy of cytostatic composition as described above was evaluated in 27 human tumor xenografts in vitro using a clonogenic assay. The tumor test panel comprised 1 to 4 models of 15 different human tumor types, which were bladder cancer, colon, gastric, head and neck, liver, non small cell lung (adeno and large cell), small cell lung, mammary, ovary, pancreatic, prostate and renal cancer as well as melanoma, pleuramesothelioma, and sarcoma. The cytostatic composition was studied at 6 concentrations ranging from 0.001% to 100.0%. Antitumor effects were recorded as inhibition of colony formation in relation to untreated controls (T/C-values).
In the clonogenic assay (=tumor colony assay, TCA), inhibition of colony formation of tumor stem cells growing in soft agar is examined. […]
The clonogenic assay was performed in a 24-well format according to a modified two-layer soft agar assay introduced by Hamburger & Salmon. […] Cultures were incubated at 37° C. and 7.5% CO2 in a humidified atmosphere for 6-18 days and monitored closely for colony growth using an inverted microscope. […]
with x the specific tumor model, and n the total number of tumor models studied. If an IC50- or IC70-value could not be determined within the examined dose range (because a compound was either too active or lacked activity), the lowest or highest concentration studied was used for the calculation. […]

[2] = tested on: human tumor xenograft MAXF 401 (Breast); assay: clonogenic assay (tumor colony assay)
Description: (§1) In the clonogenic assay (=tumor colony assay, TCA), inhibition of colony formation of tumor stem cells growing in soft agar is examined. Tumor stem cells, which are responsible for growth, the metastatic and infiltrative potential of a tumor, are prepared directly from human tumor xenografts growing in nude mice.
(§2) Cytostatic was tested at 6 concentrations. The highest concentration tested was 0.004%, as shown below, which was the maximum allowed concentration of the vehicle in the test set as 100% of Cytostatic. IMDM supplemented with 10% v/v saline solution was also used as a control vehicle.
(§3) Solid human tumor xenografts growing subcutaneously in serial passages in thymus aplastic nude mice (NMRI nu/nu strain,) were removed under sterile conditions, mechanically disaggregated and subsequently incubated with an enzyme cocktail consisting of collagenase type IV (41 U/ml) (Sigma), DNase I (125 U/ml) (Roche), hyaluronidase type III (100 U/ml) (Sigma) and dispase II (1.0 U/ml) (Roche) in RPMI 1640-Medium (Life Technologies) at 37° C. for 45 minutes. Cells were passed through sieves of 200 μm and 50 μm mesh size and washed twice with sterile PBS-buffer. The percentage of viable cells was determined in a Neubauer-hemocytometer using trypan blue exclusion.
(§4) The clonogenic assay was performed in a 24-well format according to a modified two-layer soft agar assay introduced by Hamburger & Salmon. The bottom layer consisted of 0.2 ml/well IMDM (Life Technologies) (supplemented with 20% (v/v) fetal calf serum (Sigma), 0.01% (w/v) gentamicin (Life Technologies) and 0.75% (w/v) agar). 2×10^4 to 4×10^4 cells were added to 0.2 ml of the same culture medium supplemented with 0.4% (w/v) agar and plated in 24-multiwell dishes onto the bottom layer. The test compound was applied by continuous exposure (drug overlay) in 0.2 ml culture medium. Every dish included six untreated control wells and drug-treated groups in triplicate at 6 concentrations. Cultures were incubated at 37° C. and 7.5% CO2 in a humidified atmosphere for 6-18 days and monitored closely for colony growth using an inverted microscope. Within this period, in vitro tumor growth led to the formation of colonies with a diameter of >50 μm. At the time of maximum colony formation, counts were performed with an automatic image analysis system (OMNICON 3600, Biosys GmbH). 24 hours prior to evaluation, vital colonies were stained with a sterile aqueous solution of 2-(4-iodophenyl)-3-(4-nitrophenyl)-5-phenyltetrazolium chloride (1 mg/ml, 100 μl/well) (Sigma).
(§5) Drug effects were expressed by the percentage of colony formation, obtained by comparison of the mean number of colonies in the treated wells with the mean colony count of the untreated controls (relative colony count expressed by the test-versus-control value, T/C-value [%]):
(§6) IC50- and IC70-values, being the drug concentrations necessary to inhibit colony formation by 50% (T/C=50%) and 70% (T/C=30%), respectively, were determined by plotting compound concentration versus relative colony count. Mean IC50- and IC70-values were calculated according to the formula

[3] = tested on: human tumor xenograft GXF 1172 (Stomach); assay: clonogenic assay (tumor colony assay)
Description: as §1, §2, §3, §4, §5, §6

[4] = tested on: human tumor xenograft RXF 944LX (Kidney); assay: clonogenic assay (tumor colony assay)
Description: as §1, §2, §3, §4, §5, §6

[5] = tested on: human tumor xenograft PAXF 736 (Pancreas); assay: clonogenic assay (tumor colony assay)
Description: as §1, §2, §3, §4, §5, §6

[6] = tested on: human tumor xenograft MEXF 514 (Melanoma); assay: clonogenic assay (tumor colony assay)
Description: as §1, §2, §3, §4, §5, §6

[7] = tested on: human tumor xenograft LXFS 650 (Lung, SC); assay: clonogenic assay (tumor colony assay)
Description: as §1, §2, §3, §4, §5, §6

[8] = tested on: human tumor xenograft MAXF 1322 (Breast); assay: clonogenic assay (tumor colony assay)
Description: as §1, §2, §3, §4, §5, §6

[9] = tested on: human tumor xenograft LXFS 615 (Lung, SC); assay: clonogenic assay (tumor colony assay)
Description: as §1, §2, §3, §4, §5, §6

[10] = tested on: human tumor xenograft RXF 631 (Kidney); assay: clonogenic assay (tumor colony assay)
Description: as §1, §2, §3, §4, §5, §6

[11] = tested on: human tumor xenograft LXFL 1647 (Lung, NSC); assay: clonogenic assay (tumor colony assay)
Description: as §1, §2, §3, §4, §5, §6

[12] = tested on: human tumor xenograft LXFA 289 (Lung, NSC); assay: clonogenic assay (tumor colony assay)
Description: as §1, §2, §3, §4, §5, §6

[13] = tested on: human tumor xenograft LXFA 526 (Lung, NSC); assay: clonogenic assay (tumor colony assay)
Description: as §1, §2, §3, §4, §5, §6

[14] = tested on: human tumor xenograft LXFL 529 (Lung, NSC); assay: clonogenic assay (tumor colony assay)
Description: as §1, §2, §3, §4, §5, §6

[15] = tested on: human tumor xenograft MEXF 1539 (Melanoma); assay: clonogenic assay (tumor colony assay)
Description: as §1, §2, §3, §4, §5, §6

[16] = tested on: human tumor xenograft MAXF 1384 (Breast); assay: clonogenic assay (tumor colony assay)
Description: as §1, §2, §3, §4, §5, §6

[17] = tested on: human tumor xenograft PRXF DU145 (Prostate); assay: clonogenic assay (tumor colony assay)
Description: as §1, §2, §3, §4, §5, §6

[18] = tested on: human tumor xenograft CXF 1103 (Colon); assay: clonogenic assay (tumor colony assay)
Description: as §1, §2, §3, §4, §5, §6

[19] = tested on: human tumor xenograft OVXF 899 (Ovary); assay: clonogenic assay (tumor colony assay)
Description: as §1, §2, §3, §4, §5, §6

[20] = tested on: human tumor xenograft CXF 280 (Colon); assay: clonogenic assay (tumor colony assay)
Description: as §1, §2, §3, §4, §5, §6

[21] = tested on: human tumor xenograft BXF 1218 (Bladder); assay: clonogenic assay (tumor colony assay)
Description: as §1, §2, §3, §4, §5, §6

[22] = tested on: human tumor xenograft PXF 1118 (Pleuramesothelioma); assay: clonogenic assay (tumor colony assay)
Description: as §1, §2, §3, §4, §5, §6

[23] = tested on: human tumor xenograft LIXF 575 (Liver); assay: clonogenic assay (tumor colony assay)
Description: as §1, §2, §3, §4, §5, §6

[24] = tested on: human tumor xenograft MEXF 989 (Melanoma); assay: clonogenic assay (tumor colony assay)
Description: as §1, §2, §3, §4, §5, §6

[25] = tested on: human tumor xenograft HNXF 536 (Head & neck); assay: clonogenic assay (tumor colony assay)
Description: as §1, §2, §3, §4, §5, §6

[26] = tested on: human tumor xenograft OVXF 550 (Ovary); assay: clonogenic assay (tumor colony assay)
Description: as §1, §2, §3, §4, §5, §6

[27] = tested on: human tumor xenograft PRXF MRIH1579 (Prostate); assay: clonogenic assay (tumor colony assay)
Description: as §1, §2, §3, §4, §5, §6

[28] = tested on: human tumor xenograft SXF 627 (Sarcoma); assay: clonogenic assay (tumor colony assay)
Description: as §1, §2, §3, §4, §5, §6

O=c1[nH]cc(F)c(=O)[nH]1 [5-FU, 5-fluorouracil]
10%: 5-FU control, T/C [%] [18]
14%: 5-FU control, T/C [%] [9]
33%: 5-FU control, T/C [%] [26]
++ (++ (10 < T/C < 30)): 5-FU control, T/C [%] class [3] | 5-FU control, T/C [%] class [9] | 5-FU control, T/C [%] class [12] | 5-FU control, T/C [%] class [20]
0%: 5-FU control, T/C [%] [7] | 5-FU control, T/C [%] [8] | 5-FU control, T/C [%] [14] | 5-FU control, T/C [%] [15] | 5-FU control, T/C [%] [24]
good antitumor activity: antitumor activity of positive control of growth inhibition [1]
9%: 5-FU control, T/C [%] [25]
2%: 5-FU control, T/C [%] [13] | 5-FU control, T/C [%] [21] | 5-FU control, T/C [%] [22] | 5-FU control, T/C [%] [28]
31%: 5-FU control, T/C [%] [19]
12%: 5-FU control, T/C [%] [12]
4%: 5-FU control, T/C [%] [2] | 5-FU control, T/C [%] [6] | 5-FU control, T/C [%] [10] | 5-FU control, T/C [%] [16] | 5-FU control, T/C [%] [23]
+++ (+++ (T/C ≦ 10)): 5-FU control, T/C [%] class [2] | 5-FU control, T/C [%] class [4] | 5-FU control, T/C [%] class [5] | 5-FU control, T/C [%] class [6] | 5-FU control, T/C [%] class [7] | 5-FU control, T/C [%] class [8] | 5-FU control, T/C [%] class [10] | 5-FU control, T/C [%] class [11] | 5-FU control, T/C [%] class [13] | 5-FU control, T/C [%] class [14] | 5-FU control, T/C [%] class [15] | 5-FU control, T/C [%] class [16] | 5-FU control, T/C [%] class [17] | 5-FU control, T/C [%] class [18] | 5-FU control, T/C [%] class [21] | 5-FU control, T/C [%] class [22] | 5-FU control, T/C [%] class [23] | 5-FU control, T/C [%] class [24] | 5-FU control, T/C [%] class [25] | 5-FU control, T/C [%] class [27] | 5-FU control, T/C [%] class [28]
+ (+ (30 ≦ T/C ≦ 50)): 5-FU control, T/C [%] class [19] | 5-FU control, T/C [%] class [26]
7%: 5-FU control, T/C [%] [27]
1%: 5-FU control, T/C [%] [4] | 5-FU control, T/C [%] [17]
5%: 5-FU control, T/C [%] [5] | 5-FU control, T/C [%] [11]
21%: 5-FU control, T/C [%] [20]
15%: 5-FU control, T/C [%] [3]
